Source: ChEMBL document CHEMBL2346572, “Discovery of AZD3514, a small-molecule androgen receptor downregulator for treatment of advanced prostate cancer” (Bioorg Med Chem Lett, 2013)
Values after ≈ are worked out from the molar mass of the structure shown. Active and inactive are the calls of the source. The calls are words filed in the database; no cut-off is given here.

Key:
[1] = Intrinsic clearance in human hepatocytes measured per 10^6 cells
[2] = molecular target: Voltage-gated inwardly rectifying potassium channel KCNH2 (Homo sapiens, UniProt Q12809); test: Inhibition of human ERG by IonWorks assay
Chain of Voltage-gated inwardly rectifying potassium channel KCNH2 (Q12809 whole entry): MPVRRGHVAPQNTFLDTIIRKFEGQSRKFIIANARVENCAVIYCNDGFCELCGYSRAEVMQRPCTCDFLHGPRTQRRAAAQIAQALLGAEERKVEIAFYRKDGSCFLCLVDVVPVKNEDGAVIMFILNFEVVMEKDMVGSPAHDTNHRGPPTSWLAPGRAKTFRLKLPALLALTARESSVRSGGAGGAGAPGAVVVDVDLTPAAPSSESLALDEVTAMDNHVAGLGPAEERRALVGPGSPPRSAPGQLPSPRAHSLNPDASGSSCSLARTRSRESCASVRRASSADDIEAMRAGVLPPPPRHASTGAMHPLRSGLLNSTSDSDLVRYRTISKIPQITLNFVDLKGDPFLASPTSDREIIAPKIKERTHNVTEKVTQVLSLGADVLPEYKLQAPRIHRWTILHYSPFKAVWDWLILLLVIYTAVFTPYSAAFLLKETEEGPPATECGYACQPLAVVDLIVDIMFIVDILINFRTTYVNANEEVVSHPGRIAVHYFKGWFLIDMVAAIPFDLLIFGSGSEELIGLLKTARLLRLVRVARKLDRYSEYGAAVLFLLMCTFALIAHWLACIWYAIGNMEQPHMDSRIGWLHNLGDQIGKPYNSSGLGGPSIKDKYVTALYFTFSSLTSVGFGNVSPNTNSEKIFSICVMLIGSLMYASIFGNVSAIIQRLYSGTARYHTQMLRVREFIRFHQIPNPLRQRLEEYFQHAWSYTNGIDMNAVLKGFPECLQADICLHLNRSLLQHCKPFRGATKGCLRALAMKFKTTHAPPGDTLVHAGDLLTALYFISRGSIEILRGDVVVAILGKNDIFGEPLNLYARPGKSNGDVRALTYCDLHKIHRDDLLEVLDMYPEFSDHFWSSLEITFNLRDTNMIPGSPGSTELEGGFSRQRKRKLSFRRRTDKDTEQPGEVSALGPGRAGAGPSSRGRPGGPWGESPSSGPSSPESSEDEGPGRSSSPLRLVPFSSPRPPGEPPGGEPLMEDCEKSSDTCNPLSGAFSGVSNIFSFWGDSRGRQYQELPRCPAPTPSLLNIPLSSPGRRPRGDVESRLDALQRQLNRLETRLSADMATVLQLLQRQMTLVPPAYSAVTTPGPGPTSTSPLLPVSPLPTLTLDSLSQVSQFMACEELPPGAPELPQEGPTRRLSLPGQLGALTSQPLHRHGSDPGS

[3] = Fraction unbound in human plasma by equilibrium dialysis method; type: ADME, cell-free
Androgen receptor [4] = molecular target: T1, Androgen receptor (Homo sapiens, UniProt P10275); test: Inhibition of androgen receptor-mediated cellular downregulation in human LNCAP cells assessed as decrease in nuclear receptor level after 20 to 22 hrs by laser-scanning fluorescence microplate cytometeric analysis; type: cell-based
T1 sequence (P10275 whole entry): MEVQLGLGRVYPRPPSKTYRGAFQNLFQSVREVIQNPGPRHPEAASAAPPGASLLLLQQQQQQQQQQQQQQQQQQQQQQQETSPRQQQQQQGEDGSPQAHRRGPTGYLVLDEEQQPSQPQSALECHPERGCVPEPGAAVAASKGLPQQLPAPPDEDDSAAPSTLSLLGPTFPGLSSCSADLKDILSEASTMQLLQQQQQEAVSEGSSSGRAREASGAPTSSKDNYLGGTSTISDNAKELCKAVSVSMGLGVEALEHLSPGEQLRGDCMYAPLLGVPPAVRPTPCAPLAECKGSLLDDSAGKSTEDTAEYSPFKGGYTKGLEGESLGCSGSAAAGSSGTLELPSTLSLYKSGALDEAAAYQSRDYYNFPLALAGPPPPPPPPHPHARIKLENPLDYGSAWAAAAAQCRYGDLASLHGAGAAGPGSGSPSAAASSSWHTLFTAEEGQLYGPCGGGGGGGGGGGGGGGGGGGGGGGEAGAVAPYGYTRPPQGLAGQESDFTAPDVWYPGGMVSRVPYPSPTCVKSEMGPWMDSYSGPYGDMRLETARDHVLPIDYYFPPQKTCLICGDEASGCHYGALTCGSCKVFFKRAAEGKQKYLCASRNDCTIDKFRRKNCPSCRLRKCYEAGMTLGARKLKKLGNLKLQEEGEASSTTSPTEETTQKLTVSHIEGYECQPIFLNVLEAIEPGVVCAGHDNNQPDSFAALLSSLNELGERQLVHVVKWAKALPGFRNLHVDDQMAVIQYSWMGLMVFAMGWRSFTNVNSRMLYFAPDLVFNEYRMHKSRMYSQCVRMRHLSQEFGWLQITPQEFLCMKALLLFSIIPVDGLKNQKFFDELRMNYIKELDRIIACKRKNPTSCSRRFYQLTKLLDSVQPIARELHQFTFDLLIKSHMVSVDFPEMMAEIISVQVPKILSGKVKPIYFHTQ

[5] = Fraction unbound in Han Wistar rat plasma by equilibrium dialysis method; type: ADME, cell-free
physchem = settings: phosphate buffer
[6] = Lipophilicity, log D of the compound at pH 7.4; settings: buffer
Rattus norvegicus [7] = test: Antiandrogenic activity in immature castrated Hershberger rat model assessed as inhibition of testosterone propionate-induced seminal vesicle growth at 2 mg/kg, po bid for 7 days; type: functional, organism-based; set-up: dose 2 mg/kg
[8] = Clearance in beagle dog at 2 umol/kg, iv and 10 umol/kg, po; type: ADME, organism-based, Canis lupus familiaris; settings: in vivo
[9] = Oral bioavailability in Han Wistar rat at 5 umol/kg; type: ADME, organism-based; settings: in vivo
[10] = Clearance in Han Wistar rat at 4 umol/kg, iv and 5 umol/kg, po; type: ADME, organism-based; settings: in vivo
[11] = Volume of distribution at steady state in beagle dog at 2 umol/kg, iv and 10 umol/kg, po; type: ADME, organism-based, Canis lupus familiaris; settings: in vivo, read-out: Vdss
Androgen receptor [12] = molecular target: T1, Androgen receptor; test: Displacement of [3H]R1881 from full length androgen receptor in human LNCAP cells; type: cell-based
Rattus norvegicus [13] = test: Antiandrogenic activity in immature castrated Hershberger rat model assessed as inhibition of testosterone propionate-induced seminal vesicle growth at 50 to 100 mg/kg, po bid for 7 days; type: functional, organism-based
[14] = Volume of distribution at steady state in Han Wistar rat at 4 umol/kg, iv and 5 umol/kg, po; type: ADME, organism-based; settings: in vivo, read-out: Vdss
Androgen receptor [15] = molecular target: T2, Androgen receptor (Rattus norvegicus, UniProt P15207); test: Binding affinity to rat androgen receptor ligand binding domain by fluorescence polarization assay
T2 sequence (P15207 whole entry): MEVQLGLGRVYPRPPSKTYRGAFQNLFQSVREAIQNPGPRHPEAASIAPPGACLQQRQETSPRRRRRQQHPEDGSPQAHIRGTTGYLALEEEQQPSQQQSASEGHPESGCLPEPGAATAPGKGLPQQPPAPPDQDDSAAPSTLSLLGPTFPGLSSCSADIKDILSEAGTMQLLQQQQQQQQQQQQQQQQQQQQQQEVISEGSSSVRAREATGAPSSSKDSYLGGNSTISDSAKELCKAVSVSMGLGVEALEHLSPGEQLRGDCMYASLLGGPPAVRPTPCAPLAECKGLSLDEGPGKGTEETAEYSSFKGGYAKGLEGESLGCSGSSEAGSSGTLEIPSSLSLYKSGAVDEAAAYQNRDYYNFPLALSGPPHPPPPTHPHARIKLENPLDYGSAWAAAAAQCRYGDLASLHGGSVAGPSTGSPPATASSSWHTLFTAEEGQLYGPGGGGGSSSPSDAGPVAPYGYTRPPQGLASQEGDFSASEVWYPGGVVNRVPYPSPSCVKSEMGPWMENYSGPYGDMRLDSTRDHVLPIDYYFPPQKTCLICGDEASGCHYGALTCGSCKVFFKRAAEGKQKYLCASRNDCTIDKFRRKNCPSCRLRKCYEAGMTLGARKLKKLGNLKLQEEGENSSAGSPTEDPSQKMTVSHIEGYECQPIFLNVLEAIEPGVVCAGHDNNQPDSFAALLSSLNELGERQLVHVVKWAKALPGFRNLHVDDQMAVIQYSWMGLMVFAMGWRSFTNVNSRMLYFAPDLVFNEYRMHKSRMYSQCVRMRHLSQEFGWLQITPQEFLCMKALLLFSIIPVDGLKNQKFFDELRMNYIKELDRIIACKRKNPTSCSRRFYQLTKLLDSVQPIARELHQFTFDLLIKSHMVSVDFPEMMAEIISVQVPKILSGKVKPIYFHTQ

[16] = Oral bioavailability in beagle dog at 10 umol/kg; type: ADME, organism-based, Canis lupus familiaris; settings: in vivo
[17] = Oral bioavailability in Han Wistar rat at 50 umol/kg; type: ADME, organism-based; settings: in vivo
[18] = Volume of distribution at steady state in Han Wistar rat at 20 umol/kg, iv and 50 umol/kg, po; type: ADME, organism-based; settings: in vivo, read-out: Vdss
[19] = Clearance in Han Wistar rat at 20 umol/kg, iv and 50 umol/kg, po; type: ADME, organism-based; settings: in vivo
[20] = Oral bioavailability in Han Wistar rat at 10 umol/kg; type: ADME, organism-based; settings: in vivo
[21] = Clearance in Han Wistar rat at 3 umol/kg, iv and 10 umol/kg, po; type: ADME, organism-based; settings: in vivo
[22] = Volume of distribution at steady state in Han Wistar rat at 3 umol/kg, iv and 10 umol/kg, po; type: ADME, organism-based; settings: in vivo, read-out: Vdss

Row | SMILES | hepatocyte CLint [1] | IC50 [2] | fraction unbound [3] | IC50 (Androgen receptor [4]) | fraction unbound [5] | solubility thermodynamic at 24 h (physchem) | logD [6] | other results
1 | CC(=O)N1CCN(CCOc2ccc(C3CCN(c4ccc5nnc(C(F)(F)F)n5n4)CC3)cc2)CC1 | 12 µL/min/1e6 cells | 11.2 µM | 0.027 | 324 nM | 0.012 | – | – | –
2 | CC(=O)N1CCN(CCOc2ccc(C3(O)CCN(c4ccc5nnc(C(F)(F)F)n5n4)CC3)cc2)CC1 | – | > 100 µM | 0.17 | – | 0.064 | 190 µM (≈ 101 µg/mL) | 2.2 | –
3 | CC(O)(CS(=O)(=O)c1ccc(F)cc1)C(=O)Nc1ccc(C#N)c(C(F)(F)F)c1 (centres undefined) | – | – | – | – | – | – | – | growth inhibition (GI) (Rattus norvegicus [7]): Active
4 | CC(=O)N1CCN(CCOc2ccc(C3CCN(C4=Nn5c(nnc5C(F)(F)F)CC4)CC3)cc2)CC1 [AZD3514] | < 3 µL/min/1e6 cells | > 100 µM | 0.12 | 1780 nM | 0.094 | 577 µM (≈ 300 µg/mL) | 2.5 | clearance [8]: 12 mL/min/kg; bioavailability [9]: 74%; clearance [10]: 6.6 mL/min/kg; Vd [11]: 3.2 L/kg; Ki (Androgen receptor [12]): 2200 nM; growth inhibition (GI) (Rattus norvegicus [13]): Active; Vd [14]: 2.1 L/kg; Ki (Androgen receptor [15]): 5 µM; bioavailability [16]: > 75%
5 | OC1(c2cccnc2)CCN(c2ccc3nnc(C(F)(F)F)n3n2)CC1 | < 3 µL/min/1e6 cells | 95.5 µM | 0.26 | 10700 nM | 0.34 | 100 µM (≈ 36.4 µg/mL) | 2.1 | clearance [8]: 18 mL/min/kg; Vd [11]: 1.3 L/kg; bioavailability [17]: > 75%; Vd [18]: 5.7 L/kg; growth inhibition (GI) (Rattus norvegicus [13]): Active; bioavailability [16]: > 75%; clearance [19]: 38 mL/min/kg
6 | Cn1nccc1CCOc1ccc(C2CCN(c3ccc4nnc(C(F)(F)F)n4n3)CC2)cc1 | 12 µL/min/1e6 cells | 17.8 µM | 0.0016 | 234 nM | 0.0021 | < 0.73 µM | > 4.3 | clearance [8]: 9.2 mL/min/kg; bioavailability [20]: 43%; Vd [11]: 2.7 L/kg; clearance [21]: 22 mL/min/kg; growth inhibition (GI) (Rattus norvegicus [13]): Active; Vd [22]: 2.3 L/kg; bioavailability [16]: 18%
7 | Fc1ccc(CN2CCN(c3ccc4nnc(C(F)(F)F)n4n3)CC2)cc1 | 52 µL/min/1e6 cells | – | 0.02 | – | 0.034 | – | – | –
8 | Fc1ccc(CN2CCN(C3=Nn4c(nnc4C(F)(F)F)CC3)CC2)cc1 | 3.7 µL/min/1e6 cells | 29.5 µM | 0.12 | 5890 nM | 0.13 | 520 µM (≈ 199 µg/mL) | 2.8 | –
9 | N#Cc1ccc(CN2CCN(c3ccc4nnc(C(F)(F)F)n4n3)CC2)cc1 | < 3 µL/min/1e6 cells | – | 0.044 | 1510 nM | 0.092 | 8.4 µM (≈ 3.25 µg/mL) | 2.9 | –
10 | Fc1cccc(CN2CCN(c3ccc4nnc(C(F)(F)F)n4n3)CC2)c1F | 22 µL/min/1e6 cells | > 100 µM | 0.017 | 2090 nM | 0.018 | – | – | –
11 | OC1(c2ccc(F)cc2)CCN(c2ccc3nnc(C(F)(F)F)n3n2)CC1 | < 3 µL/min/1e6 cells | – | 0.04 | – | 0.036 | – | – | –
